Experimental data: the Deep4Chem optical property database

Test: solvent given as SMILES

Cc1cc2nc3cc(C)c(N)cc3[n+](-c3ccccc3)c2cc1N
absorption maximum (in CC(C)O): 537.1 nm | absorption maximum (in CCO): 534 nm | absorption maximum (in CO): 529 nm | absorption maximum (in O): 520 nm

CC1(C)c2ccccc2-c2ccc(N(c3ccccc3)c3ccc4c(c3)C(C)(C)c3cc(-c5cc6ccccc6c6c5oc5ccccc56)ccc3-4)cc21
absorption maximum (in C1CCOC1): 382 nm

CCCCCCCCCc1csc2cc(-c3cc(-c4cc5scc(CCCCCCCCC)c5s4)c4ccc5c(-c6cc7scc(CCCCCCCCC)c7s6)cc(-c6cc7scc(CCCCCCCCC)c7s6)c6ccc3c4c65)sc12
absorption maximum (in ClC(Cl)Cl): 429 nm

CNc1ccc2c(c1)-c1ccccc1C2=O
absorption maximum (in C1CCCCC1): 389 nm | absorption maximum (in CC#N): 424 nm | absorption maximum (in CCO): 436 nm | absorption maximum (in c1ccccc1): 409 nm

CCCCCCCCc1ccc(-c2c3cc(-c4cc(CCCCCCCC)c(-c5ccc(-c6sc(/C=C7\SC(=S)N(CC)C7=O)cc6CCCCCCCC)s5)s4)sc3c(-c3ccc(CCCCCCCC)s3)c3cc(-c4cc(CCCCCCCC)c(-c5ccc(-c6sc(/C=C7\SC(=S)N(CC)C7=O)cc6CCCCCCCC)s5)s4)sc23)s1
absorption maximum (in ClC(Cl)Cl): 509 nm

c1ccc(C2=C3c4ccccc4C4=[N+]3[B-]3(Oc5ccccc54)Oc4ccccc4-c4c5ccccc5c2n43)cc1 (configuration not stated)
absorption maximum (in ClCCl): 711 nm

CC1=CC(C)=[N+]2C1=C(c1ccc(I)cc1)c1c(C)cc(C)n1[B-]21OCCO1
absorption maximum (in ClC(Cl)Cl): 507 nm

CC(C)(C)c1ccc2oc3nc4oc5ccc(N6c7ccccc7Oc7ccccc76)cc5c4cc3c2c1
absorption maximum (in ClC(Cl)Cl): 347 nm

O=c1c2cc(C#Cc3ccc(Cl)cc3)ccc2nc2ccc(C#Cc3ccc(Cl)cc3)cn12
absorption maximum (in ClCCl): 382 nm

CCN(CC)c1ccc2c(c1)oc(=O)c1cc3cnn(-c4ccccc4)c3nc12
absorption maximum (in ClCCl): 379 nm

N#Cc1c(-n2nnc3ccc(Cl)cc32)n([C@H]2C[C@H](O)[C@@H](CO)O2)c2ncnc(N)c12
absorption maximum (in CO): 276 nm

O=C([O-])c1ccccc1-c1c2cc(Br)c(=O)c(Br)c-2oc2c(Br)c([O-])c(Br)cc12
absorption maximum (in CC(C)O): 529 nm | absorption maximum (in CCO): 527 nm | absorption maximum (in CO): 522 nm | absorption maximum (in O): 515 nm

CCCCn1c2ccc(-c3ccc4ccccc4c3)cc2c2ccc3c4cc(-c5ccc6ccccc6c5)ccc4n(CCCC)c3c21
absorption maximum (in ClC(Cl)Cl): 327 nm

CCOC(=O)c1ccccc1-c1c2ccc(=O)cc-2oc2cc(OC(=O)[C@H](CO[Si](C)(C)C(C)(C)C)NC(=O)OC(C)(C)C)ccc12
absorption maximum (in C1CCOC1): 428 nm | absorption maximum (in CC#N): 445 nm | absorption maximum (in CCO): 433 nm | absorption maximum (in CS(C)=O): 449 nm

Cc1cc(-c2ccc(C(C)(C)C)cc2)c2nsnc2c1-c1ccc(N(c2ccccc2)c2ccccc2)cc1
absorption maximum (in ClCCl): 402 nm

COc1ccc(-c2cc(/C=C/c3ccc(N(c4ccccc4)c4ccccc4)cc3)c(C#N)c(N3CCCCC3)c2)cc1
absorption maximum (in CS(C)=O): 398 nm

COC(=O)C1=C(C(=O)OC)C2(c3ccccc3-c3c(Br)cc(Br)cc32)C2(/C=C/c3ccc(Cl)cc3)c3cc(OC)c(OC)cc3CCN12 (configuration not stated)
absorption maximum (in ClCCl): 328 nm

N#Cc1ccc(-n2c(-c3ccc(-c4ccc(-n5c6ccccc6c6ccccc65)cc4)s3)nc3c4ccccc4c4ccccc4c32)c2ccccc12
absorption maximum (in ClCCl): 301 nm

COc1ccc(-c2nc3c([nH]2)=C2C=C(Cl)S[C@@]2(C)[C@]2(C)SC(Cl)=CC=32)cc1
absorption maximum (in CC#N): 295 nm

CCOC(=O)CCCCCn1c2ccccc2c(=O)c2cc3c(cc21)c(=O)c1cc(I)ccc1n3CCCCCC(=O)OCC
absorption maximum (in CO): 535 nm

C(=C\c1ncc2ccccc2n1)/c1ccc(N2CCCCC2)cc1
absorption maximum (in ClCCl): 385 nm

CN(C)CCCN1c2ccccc2Sc2ccc(Cl)cc21
absorption maximum (in CC#N): 312 nm | absorption maximum (in CO): 311 nm | absorption maximum (in O): 307 nm

c1ccc(N(c2ccccc2)c2ccc(-c3ccc(-c4ccc(N(c5ccccc5)c5ccccc5)cc4)c4nsnc34)cc2)cc1
absorption maximum (in ClCCl): 459 nm

O=C(c1ccc(C(=O)c2ccc(N3c4ccccc4Oc4ccccc43)cc2)cc1)c1ccc(N2c3ccccc3Oc3ccccc32)cc1
absorption maximum (in Cc1ccccc1): 425 nm

Nc1cc([NH3+])cc(-c2nc3ccccc3s2)c1
absorption maximum (in O): 300 nm

CC1=CC(C)=[N+]2C1=C(c1ccc(N3CCOCC3)cc1)c1c(C)cc(C)n1[B-]2(F)F
absorption maximum (in C1CCOC1): 500 nm | absorption maximum (in CC#N): 496 nm | absorption maximum (in CC(=O)C(C)(C)C): 495 nm | absorption maximum (in CC(C)=O): 490 nm | absorption maximum (in CCCCCC): 498 nm | absorption maximum (in CCOC(C)=O): 498 nm | absorption maximum (in CO): 494 nm

O=Cc1ccc2nc(C#Cc3ccc(N(c4ccc(C#Cc5nc6ccc(C=O)cc6s5)cc4)c4ccc(C#Cc5nc6ccc(C=O)cc6s5)cc4)cc3)sc2c1
absorption maximum (in Cc1ccccc1): 421 nm

CC(C)(C)OC(=O)NCC(=O)OCc1ccc2c3cccc4cccc(c5cccc1c52)c43
absorption maximum (in CCO): 439 nm

C/C(=C\c1ccc(C)cc1)c1nc2ccccc2o1
absorption maximum (in C1CCCCC1): 315 nm | absorption maximum (in CO): 315 nm

N#CC1=CC(Br)=CC(C#N)=P1(c1ccccc1)c1ccccc1
absorption maximum (in ClC(Cl)Cl): 482 nm

COc1c2ccccc2c(OC)c2c1c1c(F)cccc1n2C
absorption maximum (in C1CCCCC1): 403 nm | absorption maximum (in CC#N): 405 nm | absorption maximum (in CO): 404 nm | absorption maximum (in ClCCl): 406 nm

N#Cc1cccc(-c2pc3ccccc3s2)c1 (configuration not stated)
absorption maximum (in CC#N): 324 nm

Cc1ccc(C)n1-c1ccc(C#N)cc1
absorption maximum (in C1CCOC1): 275 nm | absorption maximum (in CCCCCC): 275 nm | absorption maximum (in CCCCCl): 275 nm | absorption maximum (in CCOCC): 275 nm

CC(C)(C)c1ccc2c(c1)c1cc(C(C)(C)C)ccc1n2-c1cccs1
absorption maximum (in ClCCl): 340 nm

N#Cc1c[nH]c2ccccc12
absorption maximum (in C1COCCO1): 277.3 nm | absorption maximum (in CC#N): 276.25 nm

C(#Cc1nc(C#Cc2ccccc2)c(C#Cc2ccccc2)c(C#Cc2ccccc2)c1C#Cc1ccccc1)c1ccccc1
absorption maximum (in ClCCl): 421 nm

CCCCn1c2ccc(C#N)cc2c2cc(C#N)cc(-c3ccc(N(c4ccccc4)c4ccccc4)cc3)c21
absorption maximum (in ClCCl): 352 nm

CCN(CC)c1ccc2cc(/C=C/C3=C4CC/C(=C\c5cc6ccc(N(CC)CC)cc6oc5=O)C4=[O+][B-](F)(F)O3)c(=O)oc2c1
absorption maximum (in C1COCCO1): 629 nm | absorption maximum (in CC#N): 655 nm | absorption maximum (in CC(C)=O): 653 nm | absorption maximum (in CCOC(C)=O): 636 nm | absorption maximum (in CN(C)C=O): 673 nm | absorption maximum (in CS(C)=O): 690 nm | absorption maximum (in Cc1ccccc1): 629 nm | absorption maximum (in ClC(Cl)Cl): 644 nm | absorption maximum (in ClCCl): 653 nm

COc1ccc(C2C3=C(CCCC3=O)Nc3c2c(=O)oc2ccccc32)cc1 (configuration not stated)
absorption maximum (in CS(C)=O): 361 nm

CC(C)(C)NC(=O)c1cccc2ccc3c4ccccc4c4ccccc4c3c12
absorption maximum (in ClCCl): 332 nm

CC[N+](CC)=c1ccc2c(-c3ccccc3C(=O)O)c3c(=O)oc4cc5c(cc4c3oc-2c1)CCCN5C
absorption maximum (in CCO): 598 nm | absorption maximum (in ClC(Cl)Cl): 610 nm | absorption maximum (in O): 601 nm

CC(C)c1cccc(C(C)C)c1N1C(=O)c2cccc3c(Oc4ccc(Cl)cc4)ccc(c23)C1=O
absorption maximum (in ClCCl): 360 nm

Cn1c2ccc(S(=O)(=O)Cl)cc2c(=O)c2cc(S(=O)(=O)Cl)ccc21
absorption maximum (in CS(C)=O): 406 nm

N#Cc1ccc(/C2=C3N=C(C(c4ccccc4)=C/3c3ccccc3)/C(c3ccc(C#N)cc3)=c3\[nH]/c(c(-c4ccccc4)c3-c3ccccc3)=C(/c3ccc(C#N)cc3)C3=N/C(=C(/c4ccc(C#N)cc4)c4[nH]c2c(-c2ccccc2)c4-c2ccccc2)C(c2ccccc2)=C3c2ccccc2)cc1
absorption maximum (in ClCCl): 704 nm
